Measurements published in article PMC5622733, “Polymethoxyflavones: Novel β-Secretase (BACE1) Inhibitors from Citrus Peels” (Nutrients, 2017).

Experiments:
[1] = cited from earlier work
[2] = system: ERK and CREB signaling pathways; details: cited from earlier work
[3] = system: inducible nitric oxide synthase (iNOS), cyclooxygenase-2 (COX-2); details: cited from earlier work
BACE1 [4] = target: T1, BACE1 (Homo sapiens, UniProt P56817); test: FRET-based BACE1 inhibition assay; assay type: biochemical; details: FRET substrate Rh-[…]-Quencher
T1 construct: purchased Invitrogen (Pan Vera, Madison, WI, USA)
Method: (§1) BACE1 inhibition was determined by enzymatic assay using the fluorescent resonance energy transfer (FRET)-based BACE1 kit from Invitrogen (Pan Vera, Madison, WI, USA). α-Secretase (tumor necrosis factor-α converting enzyme, TACE) and substrate were obtained from R&D Systems (Minneapolis, MN, USA). Trypsin, chymotrypsin, elastase, and their substrates were obtained from Sigma-Aldrich (St. Louis, MO, USA). The measurement of fluorescence and optical density was performed with a BioTEK ELISA microplate fluorescence reader FLx 800 and BioTEK ELx 808 (Winooski, VT, USA), respectively.
(§2) BACE1, TACE, chymotrypsin, trypsin and elastase assays were performed according to previous methods. Fluorometric BACE1 and TACE assay were measured using a Rh-[…]-Quencher and Mca-PLAQAV-Dpa-RSSSR-NH2 as substrates. Trypsin, chymotrypsin, and elastase were assayed according to the manual described in the reference using N-benzoyl-L-Arg-pNA, N-benzoyl-L-Tyr-pNA, and N-succinyl-Ala-Ala-Ala-pNA as substrates, respectively.

[5] = target: T2, α-secretase (tumor necrosis factor-α converting enzyme, TACE) (Homo sapiens, UniProt P78536); test: TACE (α-secretase) fluorometric assay; assay type: biochemical; details: read-out: Inhibitory activity (%) against TACE
T2 construct: purchased R&D Systems (Minneapolis, MN, USA)
Method: as §1, §2

Elastase = target: T3, Elastase (Sus scrofa, UniProt P00772); test: Elastase assay; assay type: biochemical; details: read-out: Inhibitory activity (%) against Elastase
T3 construct: purchased Sigma-Aldrich (St. Louis, MO, USA)
Method: as §1, §2

Trypsin = Trypsin assay; assay type: biochemical
Method: as §1, §2

Chymotrypsin = target: T4, Chymotrypsin (Bos taurus, UniProt P00766); test: Chymotrypsin assay; assay type: biochemical; details: read-out: Inhibitory activity (%) against Chymotrypsin
T4 construct: purchased Sigma-Aldrich (St. Louis, MO, USA)
Method: as §1, §2

BACE1 [6] = target: T1, BACE1; test: BACE1 inhibition kinetics (Dixon and Lineweaver–Burk plots); assay type: biochemical; details: for Type of inhibition: Dixon and Lineweaver–Burk plots; for Ki: substrate 250-750 nM, read-out: Ki calculated from the Dixon plots
Method: The kinetic mechanisms of the different samples towards BACE1 were determined by the graphical views of Dixon and Lineweaver–Burk plots. The inhibitory constants (Ki) value was defined by interpretation of the Dixon plot, where the value of the x-axis implies -Ki. […] The kinetic parameters were then calculated using Enzyme Kinetic^TM module of SigmaPlot^TM version 12.3 (Systat Software, Inc., San Jose, CA, USA).

[7] = system: cyclic AMP response element-mediated transcription; design: method as in PMID 23588349; details: rat hippocampal neurons; cited from earlier work
[8] = rats, up to 1000 to 3000 mg/kg bw; cited from earlier work
[9] = chronic oral administration; cited from earlier work
P-glycoprotein (P-gp) = system: P-glycoprotein (P-gp); design: method as in PMID 11098080, PMID 17348674; details: adriamycin-resistant human myelogenous leukemia cells and Caco-2 cells, talinolol as probe; cited from earlier work
[10] = system: primary rat microglia and BV-2 microglial cell; details: LPS-induced; cited from earlier work
6-OHDA-lesioned rats = details: 20 mg/kg/day for 4 days before 6-OHDA injection; cited from earlier work
APP-SL 7-5 Tg mice = details: daily from 4 to 9 months of age; cited from earlier work
3XTg-AD mice = details: cited from earlier work
[11] = cited from earlier work; remark: listed apart in the source
[12] = system: olfactory bulbectomy-induced memory impairment; details: administration for 11 days; cited from earlier work

T2 sequence (P78536 215-824): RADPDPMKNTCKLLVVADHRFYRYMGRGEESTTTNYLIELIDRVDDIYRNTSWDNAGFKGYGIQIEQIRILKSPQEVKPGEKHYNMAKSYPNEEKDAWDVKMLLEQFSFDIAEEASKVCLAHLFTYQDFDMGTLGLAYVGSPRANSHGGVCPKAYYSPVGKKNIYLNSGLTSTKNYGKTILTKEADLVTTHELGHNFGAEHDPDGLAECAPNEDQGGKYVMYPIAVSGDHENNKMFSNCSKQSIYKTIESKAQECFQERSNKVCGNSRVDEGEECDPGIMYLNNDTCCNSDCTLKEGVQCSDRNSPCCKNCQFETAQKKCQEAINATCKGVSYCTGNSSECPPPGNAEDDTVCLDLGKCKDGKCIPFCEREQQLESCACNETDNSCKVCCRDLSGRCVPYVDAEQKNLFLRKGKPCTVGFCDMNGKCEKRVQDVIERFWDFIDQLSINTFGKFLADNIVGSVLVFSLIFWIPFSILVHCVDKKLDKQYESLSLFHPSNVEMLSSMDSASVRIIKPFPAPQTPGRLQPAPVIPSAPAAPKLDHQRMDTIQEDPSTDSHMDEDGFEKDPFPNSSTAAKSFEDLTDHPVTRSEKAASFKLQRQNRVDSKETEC
T3 sequence (P00772 27-266): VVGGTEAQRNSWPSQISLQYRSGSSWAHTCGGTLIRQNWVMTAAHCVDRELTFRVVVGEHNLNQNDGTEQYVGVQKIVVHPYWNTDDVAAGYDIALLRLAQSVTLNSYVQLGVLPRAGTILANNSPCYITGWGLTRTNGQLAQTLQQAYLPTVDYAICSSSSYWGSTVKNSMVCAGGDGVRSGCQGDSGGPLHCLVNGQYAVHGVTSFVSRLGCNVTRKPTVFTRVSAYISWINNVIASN
T1 sequence (P56817 46-501): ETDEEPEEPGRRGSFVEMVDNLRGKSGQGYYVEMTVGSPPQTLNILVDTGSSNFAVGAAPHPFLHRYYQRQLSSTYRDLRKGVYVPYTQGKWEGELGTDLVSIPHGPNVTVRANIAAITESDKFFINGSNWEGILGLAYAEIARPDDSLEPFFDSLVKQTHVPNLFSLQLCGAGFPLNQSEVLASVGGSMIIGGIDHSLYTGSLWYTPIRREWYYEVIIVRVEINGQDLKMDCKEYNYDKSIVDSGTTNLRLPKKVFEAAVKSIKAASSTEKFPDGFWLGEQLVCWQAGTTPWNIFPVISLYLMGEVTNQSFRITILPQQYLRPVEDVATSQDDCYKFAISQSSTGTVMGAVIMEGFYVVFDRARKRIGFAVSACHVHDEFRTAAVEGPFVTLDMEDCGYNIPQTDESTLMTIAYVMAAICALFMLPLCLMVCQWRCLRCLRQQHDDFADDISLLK

IC50 (BACE1 [4]) [µM] | inhibition at 50 µM (Elastase) [%] | inhibition at 100 µM (Elastase) [%] | inhibition at 50 µM (Chymotrypsin) [%] | inhibition at 100 µM (Chymotrypsin) [%] | Type of inhibition (BACE1 [6]) | Ki (BACE1 [6]) [µM] | SMILES | Suppression of gene expression of iNOS and COX-2 relative to parent compound [3] | inhibition at 50 µM [5] [%] | inhibition at 100 µM [5] [%] | Inhibitory activity (%) against Trypsin (Trypsin; 50 μM) [%] | Inhibitory activity (%) against Trypsin (Trypsin; 100 μM) [%] | P-gp inhibition (P-glycoprotein (P-gp)) | also measured
– | – | – | – | – | – | – | COc1cc(-c2cc(=O)c3c(OC)c(OC)c(OC)c(OC)c3o2)ccc1O [4′-DMN] | more efficiently suppressed | – | – | – | – | – | Ability to cross the blood–brain barrier (BBB) [1]: able to cross the blood–brain barrier (BBB); Phosphorylation of ERK and CREB [2]: stimulate phosphorylation
63 | 7.4 ± 2.09 | 11.4 ± 1.38 | 9.08 ± 0.48 | 8.78 ± 0.8 | noncompetitive | 38 | COc1ccc(-c2cc(=O)c3c(OC)c(OC)c(OC)cc3o2)cc1OC [Sinensetin, 5,6,7,3′,4′-pentamethoxyflavone] | – | 7.88 ± 1.12 | 7.19 ± 1.35 | 5.16 ± 0.69 | 4.70 ± 0.58 | – | CRE-mediated transcription [7]: activate
– | – | – | – | – | – | – | COc1c(OC)c(OC)c2c(=O)cc(-c3ccc(O)c(O)c3)oc2c1OC [3′,4′-di-DMN] | more efficiently suppressed | – | – | – | – | – | –
59 | 5.51 ± 1.17 | 4.49 ± 1 | 1.39 ± 0.17 | 1.77 ± 0.06 | noncompetitive | 34 | COc1ccc(-c2cc(=O)c3c(OC)c(OC)c(OC)c(OC)c3o2)cc1OC [Nobiletin, 5,6,7,8,3′,4′-hexamethoxyflavone] | – | 5.49 ± 0.34 | 11.6 ± 3.07 | 1.00 ± 0.07 | 0.92 ± 0.06 | inhibitory potential with P-gp | Aβ1-42 and Aβ1-40 in the brain (APP-SL 7-5 Tg mice): reduced quantity; Memory impairment, context-dependent fear conditioning test (APP-SL 7-5 Tg mice): significantly reversed memory impairment; Soluble Aβ1-40 and ROS levels in brain and hippocampus (3XTg-AD mice): reduced the levels; Content in the brain ([11]; mice, oral 50 mg/kg): 3.6 mg/kg; Content in the brain (molar) ([11]; mice, oral 50 mg/kg): approximately 8.9 µM; Accumulation in the brain versus liver ([11]; oral administration): much higher than that in the liver; Memory impairment [12]: significantly recovered
– | – | – | – | – | – | – | COc1ccc(-c2cc(=O)c3c(OC)c(OC)c(OC)c(OC)c3o2)cc1O [3′-DMN] | – | – | – | – | – | – | iNOS inhibition relative to nobiletin [3]: more efficiently than nobiletin

SMILES | IC50 (BACE1 [4]) [µM] | inhibition at 50 µM (Elastase) [%] | inhibition at 100 µM (Elastase) [%] | inhibition at 50 µM (Chymotrypsin) [%] | inhibition at 100 µM (Chymotrypsin) [%] | Type of inhibition (BACE1 [6]) | Ki (BACE1 [6]) [µM] | Suppression of gene expression of iNOS and COX-2 relative to parent compound [3] | inhibition at 50 µM [5] [%] | inhibition at 100 µM [5] [%] | Inhibitory activity (%) against Trypsin (Trypsin; 50 μM) [%] | Inhibitory activity (%) against Trypsin (Trypsin; 100 μM) [%] | P-gp inhibition (P-glycoprotein (P-gp)) | also measured
COc1ccc(-c2cc(=O)c3c(OC)c(OC)c(OC)c(OC)c3o2)cc1 [Tangeretin, 5,6,7,8,4′-pentamethoxyflavo-ne] | 49 | 8.64 ± 0.65 | 10.6 ± 1.09 | 5.68 ± 0.86 | 6.16 ± 0.38 | noncompetitive | 37 | – | 8 ± 1 | 11.3 ± 1.66 | 8.10 ± 0.99 | 11.80 ± 1.04 | inhibitory potential with P-gp | Death and clinical chemistry in oral acute and sub-acute study [8]: no evidence of death nor significant change of clinical chemistry; Detection in the hippocampus [9]: detected in the hippocampus; Microglial cell activation [10]: suppressed; Loss of TH+ cells and striatal dopamine content (6-OHDA-lesioned rats): markedly reduced the loss
